Experimental findings from patent publication US20220054658A1, “CONJUGATES” (Transfection Holdings Limited, priority 2018, published 2022) are described below.

The subject of one test is P. falciparum. The experiment in a line: Plasmodium falciparum testing: uptake by infected and non-infected red blood cells. It counts as cell-based. Particulars: 25 μM, 45 minutes, 37° C., synchronised stage and mix-stage cultures. The protocol: Compounds 1, 5, 9, 10 and 11 were tested for uptake in both synchronised stage and mix-stage cultures at 25 μM concentrations.

The subject of the next test is L. passim strain PRA-403. Nature of the test: Lotmaria passim parasite uptake test. It counts as cell-based. Particulars: 1 μM, room temperature, 45 min, microplate reader.
Test [1] has as its system gastrointestinal system (crop, midgut and rectum) of adult honey bees. The experiment in a line: Honey bee gut uptake test. Set-up: species or system Apis mellifera. Particulars: 100 μM, 33° C., 45 min. Here is the method: Honey bee (A. mellifera) hives were obtained and allowed to feed ab libitum spring to autumn. During the winter period, pollen mixed with 50% (v/v) sucrose was added to the honey bee hives in order to provide sufficient food. Honey bees were dissected and gastrointestinal system was removed including the crop, midgut and rectum, and added immediately to 500 μL of the delivery vehicle to be tested sample diluted with PBS at 100 μM final concentration or DMSO (0.1%) control. The mixture was incubated for 45 min at 33° C.
The gastrointestinal system (crop, midgut and rectum) of adult honey bees was extracted, and incubated with derivatives 1, 2, 8 and 11 at 100 μM and 33° C. for 45 min.

Consider `CC1=CC(C)=[N+]2C1=Cc1ccc(CCCn3cc(CCNC(=O)/C=C/NC(=O)[C@@H]4OC(C)(C)OCC4(C)C)nn3)n1[B-]2(F)F` [Compound 1, (R,E)-N-((((3-[4,4-Difluoro-5,7-dimethyl-4-bora-3a,4a-diaza-s-indacene-3-yl]propyl)-1H-1,2,3-triazol-4-yl)ethylamino)-3-oxoprop-1-enyl)-2,2,5,5-tetramethyl-1,3-dioxane-4-carboxamide], for which, in the test on P. falciparum, the “uptake by infected and non-infected red blood cells” value is listed as “not taken up either by infected nor non-infected red blood cells in every culture”. Moreover, the “fluorescence relative to derivative 2” value in the test with L. passim strain PRA-403 is “approximately % of the fluorescence of derivative 2”. In addition, the “fluorescence in honey bee gut (crop, midgut, rectum)” value in test [1] was “high fluorescence in the midgut and rectum, but not the crop”.
